According to patent publication US20220144812A1, “QUINOLINE DERIVATIVES AND THEIR USE FOR THE TREATMENT OF CANCER” (Epizyme, Inc., priority 2019, published 2022):
Where two headings read alike, the source gives them in different places.

How the values were obtained:
[1] = test system: H3K18Ac in HB-CLS-2 cells; experiment: H3K18AC in-cell western (ICW) assay; type: cell-based; conditions: H3K18Ac in-cell western, read-out: CREBBP ICW IC50
In short: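 In-cell western: after methanol fixation, blocking, overnight 4° C anti-H3K18Ac staining, then 800CW secondary plus DRAQ5 for DNA content, integrated intensities were scanned at 800 and 700 nm. Before this, compound exposure lasted 2 hr at 37° C in HB-CLS-2 cells plated 16–24 hours earlier. Values expressed as IC50 (μM).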

647V cells = experiment: High throughput proliferation (HTP) assay; type: cell-based; conditions: high throughput proliferation, read-out: CREBBP HTP IC50
Description: The following example describes methods and materials relating to a high throughput proliferation (HTP) assay. IC50 values (micromolar) are summarized in Table 1, Table 2, and Table 3 under the column labeled: “CREBBP HTP IC50 (micromolar).”
MATERIALS: 647V cell line, Dulbecco's MEM, penicillin-streptomycin, heat inactivated fetal bovine serum, D-PBS, and CellTiter-Glo were commercially available.
647V adherent cells were maintained in complete growth medium (Dulbecco's MEM supplemented with 15% v/v heat inactivated fetal bovine serum) and cultured at 37° C. under 5% CO2.
METHOD: Measurement of the effect of compound in High Throughput Proliferation (HTP) assays was performed as follows: Exponentially growing 647V cells were plated, in triplicate, in 384-well plates at the appropriate cell density in a final volume of 50 μl. Cells were incubated in the presence of increasing concentrations of compound. Viable cell number was determined at day 7 by addition of 35 μl CellTiter-Glo to each well of the plate, incubated in the dark for 30 minutes, and read on a PerkinElmer EnVision instrument to enumerate the number of cells.

CREBBP (1084-1701) = biological target: T1, CREBBP (1084-1701) (Homo sapiens, UniProt Q92793); experiment: Biochemical assay for CREBBP (1084-1701), SAMDI; conditions: SAMDI, read-out: CREBBP Biochemistry IC50
T1 construct: measured in the following biochemical assay using CREBBP (1084-1701); purchased
T1 sequence (Q92793 1084-1701): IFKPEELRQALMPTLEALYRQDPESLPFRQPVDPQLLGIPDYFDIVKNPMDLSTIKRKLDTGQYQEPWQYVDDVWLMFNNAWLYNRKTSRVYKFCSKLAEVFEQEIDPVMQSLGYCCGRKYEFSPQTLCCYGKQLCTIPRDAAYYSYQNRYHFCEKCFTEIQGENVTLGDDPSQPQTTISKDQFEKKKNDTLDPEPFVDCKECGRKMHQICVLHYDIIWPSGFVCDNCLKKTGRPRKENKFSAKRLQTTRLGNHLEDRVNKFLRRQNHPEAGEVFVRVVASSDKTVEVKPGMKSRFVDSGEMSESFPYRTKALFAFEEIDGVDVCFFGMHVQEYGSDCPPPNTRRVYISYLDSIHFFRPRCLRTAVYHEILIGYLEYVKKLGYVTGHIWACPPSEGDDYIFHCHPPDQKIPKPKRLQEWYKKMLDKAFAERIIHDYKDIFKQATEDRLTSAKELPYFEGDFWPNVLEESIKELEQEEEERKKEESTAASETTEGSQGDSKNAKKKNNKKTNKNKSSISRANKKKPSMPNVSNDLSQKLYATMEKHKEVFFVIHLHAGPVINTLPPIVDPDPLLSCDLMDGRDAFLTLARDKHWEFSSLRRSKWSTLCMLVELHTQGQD
In short: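 Acetyltransferase activity measured by SAMDI mass spectrometry after capture on biochip. Enzyme sat with compound 30 min at RT before acetyl-CoA and biotinylated H3 11-25 (K14R, K23R) peptide were added for 30 min at RT. Formic acid quench, bicarbonate neutralisation; IC50 values reported.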

EP300 (P300(1048-1664)) = biological target: T2, EP300 (P300(1048-1664)) (Homo sapiens, UniProt Q09472); experiment: Biochemical assay for EP300, SAMDI; conditions: EP300, SAMDI; read-out: EP300 Biochemistry IC50
T2 construct: P300(1048-1664)
T2 sequence (Q09472 1048-1664): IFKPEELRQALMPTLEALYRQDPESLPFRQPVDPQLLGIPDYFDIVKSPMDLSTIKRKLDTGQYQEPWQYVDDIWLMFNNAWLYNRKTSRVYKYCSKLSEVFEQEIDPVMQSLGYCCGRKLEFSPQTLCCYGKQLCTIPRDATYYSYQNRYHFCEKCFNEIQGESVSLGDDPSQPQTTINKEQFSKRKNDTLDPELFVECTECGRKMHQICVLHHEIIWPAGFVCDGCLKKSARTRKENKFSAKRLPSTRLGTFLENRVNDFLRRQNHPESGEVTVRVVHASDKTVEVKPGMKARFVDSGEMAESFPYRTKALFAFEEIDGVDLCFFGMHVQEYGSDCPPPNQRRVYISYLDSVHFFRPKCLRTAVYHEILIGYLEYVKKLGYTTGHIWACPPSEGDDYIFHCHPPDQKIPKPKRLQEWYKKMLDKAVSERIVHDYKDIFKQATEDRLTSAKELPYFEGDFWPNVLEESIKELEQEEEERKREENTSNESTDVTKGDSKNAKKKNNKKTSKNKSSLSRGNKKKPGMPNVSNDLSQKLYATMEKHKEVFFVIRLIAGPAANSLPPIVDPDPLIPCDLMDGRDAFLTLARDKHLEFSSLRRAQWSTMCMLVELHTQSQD
Description: The following example describes materials and methods relating to a biochemical assay for EP300. IC50 values (micromolar (μM)) are summarized in Table 1, Table 2, and Table 3 under the column labeled: “EP300 Biochemistry IC50 (micromolar).”

Row | Compound | IC50 [1] | IC50 (647V cells; Homo sapiens, 647-V) | IC50 (CREBBP (1084-1701)) | IC50 (EP300 (P300(1048-1664))) | IC50 (647V cells) | IC50 (647V cells; 647V cells) | IC50 ([1]; HB-CLS-2 cells) | IC50 (647V cells; Homo sapiens, 647-V, 647V cells)
1 | CCn1ncc(CN(C)C(=O)c2nc(-c3cc4c(C)[nH]nc4cc3Cl)nc3ccc(Cl)cc23)c1C [Compound 1] | 27 nM | 20 nM | 3.3 nM | 2.1 nM |  |  |  | 
2 | CCn1ncc(CN(C)C(=O)c2nc(-c3ccc(OCCCNC)c(C)c3Cl)nc3ccc(Cl)cc23)c1C [Compound 2] | 34 nM | 17 nM | 22 nM | 5 nM |  |  |  | 
3 | CCn1ncc(CN(C)C(=O)c2nc(-c3cc(Cl)c4nc[nH]c4c3)nc3ccc(COC)cc23)c1C [Compound 4] | 57 nM | 37 nM | 12 nM | 3.7 nM |  |  |  | 
4 | CCn1ncc(CN(C)C(=O)c2nc(-c3cc(NCCNC)cc(OC)c3)nc3ccc(Cl)cc23)c1C [Compound 5] | 60 nM | 35 nM | 16 nM | 11 nM |  |  |  | 
5 | CCn1ncc(CN(C)C(=O)c2nc(-c3cc4n[nH]cc4cc3Cl)nc3ccc(Cl)cc23)c1C [Compound 7] | 77 nM | 66 nM | 9.5 nM | 5.3 nM |  |  |  | 
6 | CCn1ncc(CN(C)C(=O)c2nc(-c3cc(C)nc(NCCNC)c3)nc3ccc(Cl)cc23)c1C [Compound 8] | 78 nM | 42 nM | 33 nM | 26 nM |  |  |  | 
7 | CCn1ncc(CN(C)C(=O)c2nc(-c3cc(C#N)cc(NCCNC)c3)nc3ccc(Cl)cc23)c1C [Compound 9] | 90 nM | 51 nM | 15 nM | 11 nM |  |  |  | 
8 | CCn1ncc(CN(C)C(=O)c2nc(-c3cc4[nH]ncc4cc3C)nc3ccc(Cl)cc23)c1C [Compound 10] | 93 nM | 77 nM | 22 nM | 8.4 nM |  |  |  | 
9 | CCn1ncc(CN(C)C(=O)c2nc(-c3cc(Cl)cc(NCCNC)c3)nc3ccc(Cl)cc23)c1C [Compound 12] | 110 nM | 32 nM | 13 nM | 3.5 nM |  |  |  | 
10 | CCn1ncc(CN(C)C(=O)c2nc(-c3cc(C)cc(NC(=O)CNC)c3)nc3ccc(Cl)cc23)c1C [Compound 13] | 120 nM | 110 nM | 10 nM | 7.7 nM |  |  |  | 
11 | CCn1ncc(CN(C)C(=O)c2nc(-c3cc(Cl)cc(NCCNC)c3)nc3ccc(Cl)cc23)c1C [Compound 14] | 140 nM |  | 14 nM | 2.9 nM | 39 nM |  |  | 
12 | CCn1ncc(CN(C)C(=O)c2nc(-c3ccc(OCC(O)CN4CCCC4)cc3Cl)nc3ccc(Cl)cc23)c1C (stereo not drawn) [Compound 15] | 150 nM | 64 nM | 28 nM | 12 nM |  |  |  | 
13 | CCn1ncc(CN(C)C(=O)c2nc(-c3cc(N)cc(Cl)c3)nc3ccc(Cl)cc23)c1C [Compound 16] | 150 nM | 160 nM | 4.6 nM | 7.4 nM |  |  |  | 
14 | CCn1ncc(CN(C)C(=O)c2nc(-c3cc4[nH]cnc4cc3C)nc3ccc(Cl)cc23)c1C [Compound 17] | 170 nM | 130 nM | 60 nM | 120 nM |  |  |  | 
15 | CCn1ncc(CN(C)C(=O)c2nc(-c3cc(C(=O)NC)n(C)n3)nc3ccc(Cl)cc23)c1C [Compound 18] | 170 nM | 220 nM | 23 nM | 10 nM |  |  |  | 
16 | CCn1ncc(CN(C)C(=O)c2nc(-c3ccc(OCC(O)CNC)cc3Cl)nc3ccc(Cl)cc23)c1C (stereo not drawn) [Compound 20] | 180 nM | 71 nM | 27 nM | 10 nM |  |  |  | 
17 | CCn1ncc(CN(C)C(=O)c2nc(-c3ccc(OCCNC)c(Cl)c3)nc3ccc(Cl)cc23)c1C [Compound 21] | 180 nM | 120 nM | 31 nM | 48 nM |  |  |  | 

Row | Compound | IC50 [1] | IC50 (647V cells; Homo sapiens, 647-V) | IC50 (CREBBP (1084-1701)) | IC50 (EP300 (P300(1048-1664))) | IC50 (647V cells) | IC50 (647V cells; 647V cells) | IC50 ([1]; HB-CLS-2 cells) | IC50 (647V cells; Homo sapiens, 647-V, 647V cells)
18 | CCn1ncc(CN(C)C(=O)c2nc(-c3cc(Cl)c4c[nH]nc4c3)nc3ccc(COC)cc23)c1C [Compound 22] | 180 nM | 210 nM | 14 nM | 14 nM |  |  |  | 
19 | CCn1ncc(CN(C)C(=O)c2nc(-c3ccc(OCCNC)cc3Cl)nc3ccc(Cl)cc23)c1C [Compound 23] | 190 nM | 82 nM | 46 nM | 50 nM |  |  |  | 
20 | CCn1ncc(CN(C)C(=O)c2nc(-c3ccc(OCC(O)CNC)c(Cl)c3)nc3ccc(Cl)cc23)c1C (stereo not drawn) [Compound 25] | 210 nM | 76 nM | 27 nM | 33 nM |  |  |  | 
21 | CCn1ncc(CN(C)C(=O)c2nc(-c3cc4nc[nH]c4cc3Cl)nc3ccc(Cl)cc23)c1C [Compound 26] | 210 nM | 130 nM | 84 nM | 170 nM |  |  |  | 
22 | CCn1ncc(CN(C)C(=O)c2nc(-c3ccc(OCC(O)CN4CCCC4)c(Cl)c3)nc3ccc(Cl)cc23)c1C (stereo not drawn) [Compound 27] | 220 nM | 110 nM | 39 nM | 20 nM |  |  |  | 
23 | CCn1ncc(CN(C)C(=O)c2nc(-c3cc(C)nc(N)c3)nc3ccc(Cl)cc23)c1C [Compound 28] | 220 nM | 180 nM | 29 nM | 92 nM |  |  |  | 
24 | CCn1ncc(CN(C)C(=O)c2cc(-c3ccc(NCCNC)cn3)nc3ccc(Cl)cc23)c1C [Compound 30] | 230 nM | 310 nM | 56 nM | 12 nM |  |  |  | 
25 | CCn1ncc(CN(C)C(=O)c2nc(-c3ccc(OCCCNC(C)C)c(C)c3)nc3ccc(Cl)cc23)c1C [Compound 31] | 260 nM | 130 nM | 28 nM | 140 nM |  |  |  | 
26 | CCn1ncc(CN(C)C(=O)c2nc(-c3ccc(OCCO)cc3Cl)nc3ccc(Cl)cc23)c1C [Compound 32] | 270 nM | 150 nM | 150 nM | 330 nM |  |  |  | 
27 | CCn1ncc(CN(C)C(=O)c2nc(-c3ccc(OCCCNC)cc3C)nc3ccc(Cl)cc23)c1C [Compound 33] | 270 nM | 180 nM | 68 nM | 53 nM |  |  |  | 
28 | CCn1ncc(CN(C)C(=O)c2nc(-c3cc(Cl)cc(NC(=O)NC)c3)nc3ccc(Cl)cc23)c1C [Compound 34] | 270 nM | 200 nM | 3.2 nM | 3.2 nM |  |  |  | 
29 | CCn1ncc(CN(C)C(=O)c2nc(-c3ccc(OCCNC(C)=O)c(Cl)c3)nc3ccc(Cl)cc23)c1C [Compound 35] | 290 nM | 220 nM | 44 nM | 180 nM |  |  |  | 
30 | CCc1ncc(CN(C)C(=O)c2nc(-c3cccc(Cl)c3)nc3ccc(Cl)cc23)n1C [Compound 37] | 300 nM | 290 nM | 3.4 nM | 6.1 nM |  |  |  | 
31 | CCn1ncc(CN(C)C(=O)c2nc(-c3ccc(OCCCN(C)C(=O)OC(C)(C)C)c(C)c3)nc3ccc(Cl)cc23)c1C [Compound 183] |  |  | 18000 nM | 42000 nM | 8700 nM |  |  | 
32 | CCn1ncc(CN(C)C(=O)c2nc(-c3ccccc3Cl)nc3c(C#N)cccc23)c1C [Compound 211] |  |  | 32000 nM | 17000 nM |  | 15000 nM |  | 
33 | CCn1ncc(CN(C)C(=O)c2nc(-c3cc(C(=O)NC)nn3C)nc3ccc(P(C)(C)=O)cc23)c1C [Compound 393] |  |  | 50000 nM | 50000 nM |  | 8600 nM |  | 
34 | CCn1ncc(CN(C)C(=O)c2nc(-c3ccc(OCCNC(=O)C(C)C)c(Cl)c3)nc3ccc(Cl)cc23)c1C [Compound 416] |  |  |  | 180 nM |  |  | 400 nM | 400 nM
